The source of these data is patent publication US20250049911A1, “I[…] FOR IMMUNOTHERAPEUTIC AND OTHER USES” (priority 2021, published 2025).

In assay [1] the test system is primary human naïve CD8+ T cells. It counts as cell-based.
The test system of a further assay is CoV2 RBD protein. Set-up: species or system SARS-CoV-2. Conditions: in vivo.
The test system of another assay is murine CD8+ T cells. Kind of assay: IFN-γ expression and proliferation of murine CD8+ T cells. It counts as cell-based, mouse.

As for 6-bromo-substituted indirubin [BIO], the “development of TMSCs” value in assay [1] was “promoted the development of TMSCs”.

For the molecule “Polyinosinic:polycytidylic acid [poly(I:C)]”, in the assay on CoV2 RBD protein, the humoral response entry is “strong humoral response” and the “ratio of IgG2b to IgG1 titer” value is on record as “balanced Th1/Th2 profile or Th2-dominant response”.

For `O=C1Cc2c([nH]c3ccc(Br)cc23)-c2ncccc2N1` [1-Azakenpaullone], the “development of TMSCs” value in assay [1] is reported as “promoted the development of TMSCs”.

`CC(=O)O/N=C1/C(=C2/C(=O)Nc3cc(Br)ccc32)Nc2ccccc21` [BIO-acetoxime]: the “development of TMSCs” value in assay [1] was “promoted the development of TMSCs”.

Turning to IL-15, in assay [1], the “TMSC expansion in culture” value is “significantly expanded TMSCs” and the TMSC formation entry is “only a moderate advantage”.

Consider `Nc1cccc(-c2cc3c(Oc4cccc(O)c4)ncnc3[nH]2)c1.O=C(O)C(F)(F)F.O=C(O)C(F)(F)F` [TWS119], for which, in assay [1], the TMSC formation result is on record as “could not induce TMSC formation”. In addition, the IFN-γ expression result with murine CD8+ T cells (4 days post treatment) is reported as “inhibited”. In the assay with murine CD8+ T cells (CFSE proliferation staining), the T cell proliferation result was “inhibited”.

B1: IL-7 (protein, UniProt P13232 26-177, looked up)
Interleukin-7: DCDIEGKDGKQYESVLMVSIDQLLDSMKEIGSNCLNNEFNFFKRHICDANKEGMFLFRAARKLRQFLKMNSTGDFDLHLLKVSEGTTILLNCTGQVKGRKPAALGEAQPTKSLEENKSLKEQKKLNDLCFLKRLLQEIKTCWNKILMGTKEH
Consider B1, for which, in assay [1], the “TMSC expansion in culture” value was “significantly expanded TMSCs” and the TMSC formation entry was “only a moderate advantage”.
